The values below come from ChEMBL document CHEMBL1201862, “PubChem BioAssay data set” (2004).

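Dose response: 5 concentrations. Exposure: 48 h. Format: 96-well plates. Endpoint: linear interpolation; highest concentration if not reached. The concentration for 50% growth inhibition is given as GI50.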 Activity calls are given as the source filed them. Cut-off read from the data, not from the text of the source: active = GI50 up to about 1.1 µM and inactive = higher. Bounds are passed on as bounds.

Among the test systems are DU-145; NCI-H460; Hs-578T; SF-268; HOP-92; PC-3; MCF7; Malme-3M; OVCAR-3; U-251; K562; SR; HCT-116; UACC-62; A498; MDA-MB-435; NCI/ADR-RES; HCT-15; TK-10; SF-539.
Common to all, as to experiment: NCI anticancer screen, dose series, 48 h

Turning to `CC(C)C(=O)C(C)(C)CCc1ccccn1`, the GI50 in the test on DU-145, in the test with NCI-H460, in the test with Hs-578T, with SF-268, in the test on HOP-92 and with PC-3 was > 100 µM (inactive) each time. For the same compound, the GI50 in the test on MCF7, with Malme-3M, with OVCAR-3, in the test with U-251, in the test on K562 and with SR was > 100 µM (inactive) each time. Moreover, the GI50 was > 100 µM (inactive) in the test with HCT-116; > 100 µM (inactive) with UACC-62; > 100 µM (inactive) in the test with A498; > 100 µM (inactive) in the test with MDA-MB-435; > 100 µM (inactive) in the test on NCI/ADR-RES; greater than 100 µM in the test on HCT-15. For the same compound, in the test on TK-10, the GI50 was > 100 µM (inactive).
`C=C1CC2(CC(c3ccccc3Cl)OC(c3ccccc3Cl)C2)OC1=O` (stereo not given): the GI50 with DU-145 was 6.87 µM (inactive); with NCI-H460, 5.08 µM (inactive); with SF-539 it was 1.96 µM (inactive); in the test with Hs-578T it was 1.88 µM (inactive); in the test on SF-268, 2.27 µM (inactive); in the test on HOP-92, 1.87 µM (inactive). Further, the GI50 was 2.89 µM (inactive) in the test with PC-3; 2.11 µM (inactive) in the test with MCF7; 3.57 µM (inactive) in the test with Malme-3M; 2.91 µM (inactive) in the test with OVCAR-3; 8.07 µM (inactive) with U-251; 2.26 µM (inactive) with K562. In addition, the GI50 in the test on SR is 2.52 µM (inactive); with HCT-116 it was 1.76 µM (inactive); in the test with UACC-62 it was 1.94 µM (inactive); in the test on A498, 9.73 µM (inactive); with MDA-MB-435, 1.8 µM (inactive); in the test with NCI/ADR-RES it was 3.57 µM (inactive). Further, the GI50 was 2.56 µM in the test on HCT-15 and 4.33 µM (inactive) in the test with TK-10.
Regarding `COc1cccc2c1C(=O)c1ccc3cc(CO)cc(O)c3c1C2=O`, the GI50 with DU-145 is 0.733 µM (active); with NCI-H460, 0.304 µM (active); with SF-539 it was 0.329 µM (active); in the test on Hs-578T, 3.7 µM (inactive); in the test with SF-268 it was 0.815 µM (active); in the test on HOP-92 it was 0.573 µM (active). Also, the GI50 in the test on PC-3 is 0.215 µM (active); in the test with MCF7, 0.41 µM (active); in the test with Malme-3M it was 0.046 µM (active); in the test on OVCAR-3, 0.169 µM (active); in the test with U-251, 1.45 µM (inactive); in the test with K562, 1.41 µM (inactive). Moreover, the GI50 in the test on SR was 0.267 µM (active); in the test on HCT-116 it was 0.252 µM (active); in the test on UACC-62, 0.279 µM (active); in the test on A498, 3.52 µM (inactive); with MDA-MB-435, 0.201 µM (active); in the test on NCI/ADR-RES, 0.515 µM (active). The figures for the GI50 with HCT-15 and in the test with TK-10 were 0.321 µM and 3.01 µM (inactive), respectively.
In the case of `COc1cc(C2SCC(=O)N2c2ccc(-n3c(-c4ccccc4)nc4ccccc4c3=O)cc2)ccc1O` (stereo not given), the GI50 in the test on DU-145 was > 100 µM (inactive); in the test on NCI-H460, 69.5 µM (inactive); with SF-539 it was > 100 µM (inactive); in the test on Hs-578T, 22.3 µM (inactive); in the test on SF-268 it was 32.4 µM (inactive); in the test with HOP-92 it was 13.3 µM (inactive). Besides, the GI50 in the test with PC-3 was > 100 µM (inactive); in the test on MCF7 it was 70 µM (inactive); in the test with Malme-3M it was 54.7 µM (inactive); in the test with OVCAR-3 it was > 100 µM (inactive); in the test with U-251, 84.9 µM (inactive); in the test with K562 it was > 100 µM (inactive). Besides, the GI50 in the test with SR is 26 µM (inactive); with HCT-116, 50.1 µM (inactive); with UACC-62, 26.1 µM (inactive); with A498, > 100 µM (inactive); in the test with MDA-MB-435, > 100 µM (inactive); with NCI/ADR-RES, 34.3 µM (inactive). The GI50 in the test with HCT-15 was 64.1 µM; with TK-10, > 100 µM (inactive).
Consider `CC(=O)c1ccc(Nc2nc3ccccc3c3occc23)cc1`, for which the GI50 in the test on DU-145 is 16.6 µM (inactive); in the test with NCI-H460 it was 4.71 µM (inactive); in the test on SF-539, 17.1 µM (inactive); in the test on Hs-578T, 15.3 µM (inactive); in the test on SF-268, 14.1 µM (inactive); in the test on HOP-92, 12.8 µM (inactive). Further, the GI50 in the test on PC-3 is 22.4 µM (inactive); in the test with MCF7, 8.22 µM (inactive); with Malme-3M, 23.3 µM (inactive); in the test with OVCAR-3, 14.9 µM (inactive); in the test on U-251, 18.8 µM (inactive); in the test on SR, 2.92 µM (inactive). The GI50 in the test on HCT-116 is 11.4 µM (inactive); with UACC-62 it was 10.7 µM (inactive); in the test on A498, 2.99 µM (inactive); in the test on MDA-MB-435 it was 3.08 µM (inactive); in the test on NCI/ADR-RES, 11.9 µM (inactive); in the test with HCT-15, 5.08 µM. In addition, in the test on TK-10, the GI50 was 7.1 µM (inactive).
Take `CCCCCCCCCCCCc1ccsc1-c1ccc(-c2ccc(-c3sc(-c4cc(CCCCCCCCCCCC)c(-c5ccc(-c6ccc(-c7sccc7CCCCCCCCCCCC)s6)s5)s4)cc3CCCCCCCCCCCC)s2)s1`: the GI50 in the test on DU-145, in the test on NCI-H460, with SF-539, with Hs-578T, in the test on SF-268 and in the test with HOP-92 was > 100 µM (inactive) each time. Further, the GI50 was > 100 µM (inactive) with PC-3; > 100 µM (inactive) with MCF7; > 100 µM (inactive) in the test on OVCAR-3; > 100 µM (inactive) with U-251; > 100 µM (inactive) in the test with K562; 22.8 µM (inactive) in the test with SR. Moreover, the GI50 with HCT-116 was > 100 µM (inactive); in the test on UACC-62, > 100 µM (inactive); in the test with A498 it was > 100 µM (inactive); with MDA-MB-435, > 100 µM (inactive); in the test on NCI/ADR-RES, > 100 µM (inactive); in the test on HCT-15, greater than 100 µM. Besides, the GI50 with TK-10 was > 100 µM (inactive).
As for `CCCN1CC=C(c2cc(C(=O)OCC)[nH]c2-c2cc(C)no2)C1=O`, the GI50 in the test on DU-145, with NCI-H460, in the test on SF-539, in the test on Hs-578T, with SF-268 and in the test with HOP-92 was > 100 µM (inactive) each time. Besides, the GI50 with PC-3, in the test on MCF7, with Malme-3M, in the test on OVCAR-3, in the test with U-251 and with K562 was > 100 µM (inactive) in each case. The GI50 in the test on SR is 54.7 µM (inactive); in the test with HCT-116, > 100 µM (inactive); in the test with UACC-62, > 100 µM (inactive); with A498, > 100 µM (inactive); in the test on MDA-MB-435 it was > 100 µM (inactive); in the test with NCI/ADR-RES, > 100 µM (inactive). This compound also showed a GI50 in the test with HCT-15 greater than 100 µM.
On to `c1ccc2c(c1)CCN1CCc3ccccc3C1C2` (stereo not given), for which the GI50 in the test with DU-145 is > 100 µM (inactive); in the test with NCI-H460, 44.6 µM (inactive); in the test with SF-539 it was 20.5 µM (inactive); in the test with Hs-578T, 68.5 µM (inactive); in the test on SF-268 it was 32.2 µM (inactive); with HOP-92, 31 µM (inactive). Further, the GI50 in the test with PC-3 is 43.7 µM (inactive); in the test with MCF7, > 100 µM (inactive); in the test on Malme-3M, > 100 µM (inactive); in the test on OVCAR-3 it was 99.1 µM (inactive); in the test with U-251 it was 38.4 µM (inactive); in the test on K562 it was 31.2 µM (inactive). Also, the GI50 was 47.8 µM (inactive) with SR; 17.5 µM (inactive) in the test on HCT-116; 29.7 µM (inactive) in the test on UACC-62; > 100 µM (inactive) in the test on A498; 33 µM (inactive) in the test with MDA-MB-435; 65.9 µM (inactive) in the test with NCI/ADR-RES. Also, the GI50 is 40.2 µM with HCT-15 and 59.6 µM (inactive) with TK-10.
Take `O=C(NO)NCCCl`: the GI50 in the test on DU-145, in the test with NCI-H460, in the test on SF-539, in the test on Hs-578T, with SF-268 and in the test with HOP-92 was > 100 µM (inactive) in each case. Moreover, the GI50 with PC-3, with MCF7, with Malme-3M, in the test with OVCAR-3, in the test on U-251 and in the test on K562 was > 100 µM (inactive) in each case. Moreover, the GI50 with SR was > 100 µM (inactive); in the test on HCT-116, > 100 µM (inactive); in the test on UACC-62 it was > 100 µM (inactive); in the test with A498, 49.5 µM (inactive); with MDA-MB-435 it was > 100 µM (inactive); in the test on NCI/ADR-RES, > 100 µM (inactive). In addition, the GI50 with HCT-15 was greater than 100 µM; with TK-10, > 100 µM (inactive).
Consider `c1cc(-c2cnc(-c3ccc4c(c3)CCCO4)o2)ccn1`, for which the GI50 with DU-145 was 11.3 µM (inactive); in the test with SF-539, 9.1 µM (inactive); with Hs-578T, 17.1 µM (inactive); with SF-268, 15.6 µM (inactive); in the test with HOP-92, 22.9 µM (inactive); in the test with PC-3 it was 11.8 µM (inactive). In addition, the GI50 is 14.7 µM (inactive) with MCF7; 16.7 µM (inactive) in the test with Malme-3M; 16.4 µM (inactive) with OVCAR-3; 16.7 µM (inactive) in the test on U-251; 5.05 µM (inactive) in the test with K562; 0.524 µM (active) in the test on SR. In addition, the GI50 in the test with HCT-116 is 16.7 µM (inactive); in the test with UACC-62, 17.1 µM (inactive); in the test with A498, 12.3 µM (inactive); with MDA-MB-435, 15.1 µM (inactive); with NCI/ADR-RES, 17.1 µM (inactive); in the test on HCT-15 it was 16.2 µM. Further, the GI50 in the test with TK-10 is 12.7 µM (inactive).
